Data set [1] relates to Staphylococcus aureus subsp. aureus Rosenbach ATCC 25923. Kind of data set: Antibacterial susceptibility testing, broth microdilution, bacterial growth by absorbance at 630 nm. In kind it is cell-based. The procedure:
To evaluate the antimicrobial profile, a study was performed using the broth microdilution standard method with minor modifications using DMSO as solvent. Standard laboratory strains of Gram-positive Staphylococcus aureus subsp. aureus Rosenbach ATCC 25923 and Gram-negative Escherichia coli O157:H7 were studied. TSB was used as the culture medium for bacteria and samples with bacteria in media were considered positive controls.
Antibacterial activity of GUMBOS was evaluated by comparing it with negative controls, as well as with the antibacterial activity of the parent compounds, [Cip][HCl] and [Mox][HCl]. […] These values are determined through laboratory testing and can vary depending on the testing methodology and conditions, thus the range increase in this study to 25 mg·L^−1. Stock solutions were prepared using water for water-soluble compounds while non-water soluble compounds were reconstituted using a deionized water solution containing 5% DMSO [96]. Following that, the compounds were diluted using fresh tryptic soy broth (TSB) to achieve desired concentrations. Initially, agar media was used to grow additional bacteria to correlate absorbance readings to microbial counts. Then, a solution of 0.1 mL of S. aureus added to 10 mL of TSB was incubated at 37 °C for 24 h and repeated for three more days until enough bacteria was obtained. After centrifugation and washing steps with PBS (1×) solution until obtaining a homogenized pellet, the inoculum was then diluted to 0.06 absorbance at 630 nm or 0.5 McFarland [97]. After compounds were diluted in TSB, 100 μL of samples with 100 μL of S. aureus inoculum were then transferred to a 96-well flat bottom microtitre plate (TPP, Switzerland) which was sealed and left in incubation at 37 °C for 24 h. Absorbance was read at 630 nm with a BioTek universal microplate reader (Agilent Technologies, VT, USA) to determine the turbidity in the wells [97, 98]. Three wells were prepared per sample. To ensure the viability and growth of bacteria in the culture media, negative controls were conducted along with a positive culture using the media containing only the bacteria. [Cip][HCl] served as the reference antibacterial agent.
(In general: In broth dilution the organism is exposed to a series of concentrations in liquid medium.)

A short description of data set [2]: Thermogravimetric analysis (TGA), thermal stability. In kind it is physicochemical. The following applies: for Tonset / Tpeak / Tstart: 10 °C min^−1, N2 atmosphere; for Residue at 500 °C: mass residue remaining at 500 °C; for Tpeak: temperature at highest degradation rate; for Tstart: temperature where weight loss starts. The protocol: Thermogravimetric analysis (TGA) was executed using a Hi-Res modulated TGA 2950 thermogravimetric analyzer (TA Instruments, New Castle, DE, USA) and curves were obtained for all GUMBOS. Approximately 1-3 mg of GUMBOS was placed in a platinum pan and heated from 25 °C to 575 °C at a slow heating rate of 10 °C min^-1. Some characteristic parameters were extrapolated. For DSC and TGA, onset temperatures (Tonset) were determined as the temperature value matching the intersection point of the extrapolated initial baseline and the tangent or line through the linear section of the leading edge of the Tpeak point where the Tpeak was the temperature value at the highest degradation rate. For TGA, additional data were collected such as the temperature value where weight loss starts ([…]), and the percentage of mass residue remaining at 500 °C which allows evaluation of the short-term stability. All these parameters were extrapolated using the software NETZSCH Proteus® version 6.1081 (Netzsch-Gerätebau GmbH, Selb, Germany) for DSC analysis and Universal Analysis 2000 version 4.5A (TA Instruments-Waters LLC, New Castle, DE, USA) for TGA analysis.

Data set [3] relates to L929 mouse fibroblast cells. Kind of data set: Cytotoxicity evaluation, resazurin reduction assay. In kind it is cell-based. The following applies: 24 h exposure. The procedure: To assess the impact of GUMBOS on cell viability, the resazurin assay was employed using L929 mouse fibroblast cells as described previously by Page et al.. The L929 cells were cultured at 37 °C in a 5% CO2 atmosphere, utilizing DMEM supplemented with 10% FBS and 1% streptomycin/gentamycin. Once the cell culture reached 70–80% confluence, it was detached using a 0.25% (w/v) trypsin-ethylenediaminetetraacetic acid (EDTA) solution. The cells were then subjected to centrifugation with the Heraeus Multifuge X1R centrifuge (Thermo Fisher Scientific; Waltham, MA, USA) and resuspended in fresh medium. Viable cell counts were obtained through a Neubauer chamber (Improved Neubauer Bright-Line, Boeco; Hamburg, Germany).
For experiments, L929 cells were seeded at a density of 5 × 10^4 cells per well in 96-well microplates and supplemented with DMEM medium. Plates were placed in a humidified incubator at 37 °C with 5% CO2 for 24 h to allow cell attachment and growth. Subsequently, the culture medium was replaced with different concentrations of each sample being tested. After 24h incubation, the medium was replaced with fresh culture medium containing 10% resazurin. Cells were then incubated for 4 h in the dark at 37 °C with 5% CO2 to allow resazurin conversion. Fluorescence of resorufin was measured using a plate reader (Synergy HT plate reader-Biotek Instruments, Winooski, VT, USA) with excitation at 560 nm and emission at 590 nm. Negative control wells contained only culture medium, while positive control wells contained the cation precursor, the active pharmaceutical ingredient. All experiments were conducted in triplicate.
Background: The colour change of resazurin is a common sign of viable cells or microbes.

Data set [4] can be described thus: Octanol/water partition coefficient, shake-flask method. It is filed as physicochemical. The following applies: for logKO/W ± SD: octanol/water, shake-flask, mean ± standard deviation; for relative hydrophobicity from log KO/W: ranking within the [Cip]-based or [Mox]-based GUMBOS. The procedure: Following synthesis and structural characterization of FQ-based GUMBOS, octanol/water partition coefficient (Ko/w) values were obtained through a shake-flask method with minor modifications. Initially, water and 1-octanol were saturated by agitation for 24 h at room temperature. GUMBOS were solubilized in 5 mL of water-saturated octanol (Ci), to which an equivalent volume of octanol-saturated water was added. This solution subjected to 24 h of agitation and the absorbance of the upper layer was measured at a wavelength of 280 nm. Sample concentration in octanol (Co) was determined through a calibration curve, which was created using six solutions of different concentrations (4–30 μmol·L^−1) of GUMBOS in 1-octanol. Later, GUMBOS concentration in water (Cw) were obtained by the following equation Ci − C0 = Cw. Octanol/water partition coefficient (Ko/w) values were then calculated using Ko/w = Co/Cw. Data were representative of three replicates executed for each of the GUMBOS.

The conditions of data set [5]: TGA, parent compound; cited from earlier work.
[6] abbreviates: 0.25 mg·L^−1, 24 h exposure, Figure 4a.
Where [7] appears, read: 25 mg·L^−1, 24 h exposure, Figure 4b.
The mark [8] stands for this setting: 50 mg·L^−1 (highest concentration).

Structures are written as SMILES. “Also recorded” adds a separate entry of the source. Counter-ions that a name gives are not always drawn. Like-named read-outs stand apart in the source and are kept apart here.

Take `CCCCC(CC)COC(=O)CC(C(=O)OCC(CC)CCCC)S(=O)(=O)O.COc1c(N2C[C@@H]3CCCN[C@@H]3C2)c(F)cc2c(=O)c(C(=O)O)cn(C3CC3)c12` [[Mox][Doc]]: in data set [1] (setting [6]), the “antibacterial performance (bacterial growth) against S. aureus” value (“antibacterial performance” below) is on record as “activities closer to their precursor”. The “antibacterial performance” value in data set [1] (setting [7]) is listed as “significant differences from their corresponding precursors”. In data set [2], the Tonset worked out at 271.04 °C, the “Residue at 500 °C” value was determined as 33.55%, the Tpeak was found to be 275.90 °C and the Tstart turned out to be 249.91 °C.

Consider `COc1c(N2C[C@@H]3CCCN[C@@H]3C2)c(F)cc2c(=O)c(C(=O)O)cn(C3CC3)c12.O=S(=O)(NS(=O)(=O)C(F)(F)F)C(F)(F)F` [[Mox][NTF2]], for which the “cytotoxicity to L929 cells (cell viability)” value (shortened to “cytotoxicity to L929 cells”) in data set [3] (setting [8]) is on record as “slight toxicity”. Also, in data set [2], the Tonset turned out to be 319.64 °C, the “Residue at 500 °C” value is 24.57%, the Tpeak stood at 327.51 °C and the Tstart was found to be 297.72 °C.

Take `C[C@H](CCC(=O)O)[C@H]1CC[C@H]2[C@@H]3CC[C@@H]4C[C@H](O)CC[C@]4(C)[C@H]3C[C@H](O)[C@]12C.O=C(O)c1cn(C2CC2)c2cc(N3CCNCC3)c(F)cc2c1=O` [[Cip][Dxc]]: the “cytotoxicity to L929 cells” value in data set [3] (setting [8]) is recorded as “some levels of cell toxicity; also recorded: slight toxicity”. For the same compound, the “antibacterial performance” value in data set [1] (setting [6]) is on record as “least antimicrobial agent of all tested samples”. Further, the “antibacterial performance” value in data set [1] (setting [7]) was “significant differences from their corresponding precursors; also recorded: least antimicrobial agent of all tested samples”. Also, in data set [4], the “logKO/W ± SD” value is given as −1.110 ± 0.018 and the “relative hydrophobicity from log KO/W” value is “most hydrophilic”. Besides, in data set [2], the Tonset worked out at 326.23 °C, the “Residue at 500 °C” value is 19.75%, the Tpeak stood at 332.30 °C and the Tstart came to 211.93 °C.

Regarding `c1ccc([B-](c2ccccc2)(c2ccccc2)c2ccccc2)cc1` [[Na][TPB], sodium tetraphenylborate, reference compound], the “cytotoxicity to L929 cells” value in data set [3] (two highest concentrations (25 and 50 mg·L^−1)) is reported as “cytotoxic”.

Take `O=C(O)c1cn(C2CC2)c2cc(N3CCNCC3)c(F)cc2c1=O` [[Cip][HCl], Ciprofloxacin hydrochloride monohydrate]: in data set [5], the Tonset was 300 °C, the Tpeak is 318 °C and the Tstart is 150 °C.

Consider `COc1c(N2C[C@@H]3CCCN[C@@H]3C2)c(F)cc2c(=O)c(C(=O)O)cn(C3CC3)c12` [[Mox][HCl], moxifloxacin hydrochloride monohydrate], for which, in data set [5], the Tonset is 240 °C, the Tpeak is 260 °C and the Tstart was 220 °C.

With `O=C(O)c1cn(C2CC2)c2cc(N3CCNCC3)c(F)cc2c1=O.O=S(=O)(NS(=O)(=O)C(F)(F)F)C(F)(F)F` [[Cip][NTF2]], the “antibacterial performance” value in data set [1] (setting [6]) is on record as “activities closer to their precursor”. Also, the “logKO/W ± SD” value in data set [4] worked out at 0.145 ± 0.075. In data set [2], the Tonset came to 287.79 °C, the “Residue at 500 °C” value amounted to 39.88%, the Tpeak was found to be 295.18 °C and the Tstart was found to be 263.57 °C.

For the compound `O=C(O)c1cn(C2CC2)c2cc(N3CC[NH2+]CC3)c(F)cc2c1=O.c1ccc([B-](c2ccccc2)(c2ccccc2)c2ccccc2)cc1` [[Cip][TPB]], in data set [3] (setting [8]), the “cytotoxicity to L929 cells” value is on record as “some levels of cell toxicity”. The “logKO/W ± SD” value in data set [4] is −0.464 ± 0.006. Also, in data set [2], the Tonset is 117.85 °C, the “Residue at 500 °C” value was 36.93%, the Tpeak came to 122.95 °C and the Tstart was found to be 98.94 °C.

`O=C(O)c1cn(C2CC2)c2cc(N3CCNCC3)c(F)cc2c1=O.O=S(=O)(NS(=O)(=O)C(F)(F)C(F)(F)F)C(F)(F)C(F)(F)F` [[Cip][BETI]]: the “logKO/W ± SD” value in data set [4] was −0.314 ± 0.094. Besides, in data set [2], the Tonset was 284.61 °C, the “Residue at 500 °C” value was found to be 35.43%, the Tpeak came out at 294.04 °C and the Tstart was 266.25 °C.

`COc1c(N2C[C@@H]3CCCN[C@@H]3C2)c(F)cc2c(=O)c(C(=O)O)cn(C3CC3)c12.C[C@H](CCC(=O)O)[C@H]1CC[C@H]2[C@@H]3CC[C@@H]4C[C@H](O)CC[C@]4(C)[C@H]3C[C@H](O)[C@]12C` [[Mox][Dxc]]: in data set [2], the Tonset came to 275.22 °C, the “Residue at 500 °C” value amounted to 15.60%, the Tpeak was 284.97 °C and the Tstart is 208.92 °C.

As to `COc1c(N2C[C@@H]3CCCN[C@@H]3C2)c(F)cc2c(=O)c(C(=O)O)cn(C3CC3)c12.O=S(=O)(NS(=O)(=O)C(F)(F)C(F)(F)F)C(F)(F)C(F)(F)F` [[Mox][BETI]], in data set [2], the Tonset was found to be 307.46 °C, the “Residue at 500 °C” value is reported as 32.31%, the Tpeak was found to be 322.97 °C and the Tstart worked out at 266.98 °C.

Turning to `CCCCC(CC)COC(=O)CC(C(=O)OCC(CC)CCCC)S(=O)(=O)O.O=C(O)c1cn(C2CC2)c2cc(N3CCNCC3)c(F)cc2c1=O` (stereo not shown) [[Cip][Doc]], in data set [4], the “logKO/W ± SD” value turned out to be 0.162 ± 0.015 and the “relative hydrophobicity from log KO/W” value is “most hydrophobic”. For the same compound, in data set [2], the Tonset was 286.49 °C, the “Residue at 500 °C” value came to 24.26%, the Tpeak came to 286.64 °C and the Tstart was found to be 252.18 °C.

As to `COc1c(N2C[C@@H]3CCC[NH2+][C@@H]3C2)c(F)cc2c(=O)c(C(=O)O)cn(C3CC3)c12.c1ccc([B-](c2ccccc2)(c2ccccc2)c2ccccc2)cc1` [[Mox][TPB]], in data set [1] (setting [6]), the “antibacterial performance” value was “activities closer to their precursor”. Also, the “antibacterial performance” value in data set [1] (setting [7]) is on record as “significant differences from their corresponding precursors”. In data set [2], the Tonset came out at 176.37 °C, the “Residue at 500 °C” value came out at 42.13%, the Tpeak turned out to be 177.21 °C and the Tstart was 144.02 °C.

Source of the values: paper PMC10650486, “Fluoroquinolone-Based Organic Salts (GUMBOS) with Antibacterial Potential” (International Journal of Molecular Sciences, 2023).
